How the values were obtained:
JW23.3 cells = assay type: cell-based, murine; details: 72 hours
JH-2-002 cells = assay type: cell-based, human; details: 72 hours
MPNST-724 cells = assay type: cell-based, human; details: 3 days
[1] = test system: JW23.3, JH-2-002, and MPNST-724 cells; test: IncuCyte proliferation assay, range stated over three MPNST cell lines; assay type: cell-based; details: 72 h, read-out: IC50 for inhibition of cell confluence, range over cell lines

| SMILES | effect on percent cell confluence / proliferation (JW23.3 cells) | effect on percent cell confluence / proliferation (JH-2-002 cells) | effect on proliferation (MPNST-724 cells) | IC50 [1] |
| --- | --- | --- | --- | --- |
| CCS(=O)(=O)N1CC(CC#N)(n2cc(-c3ncnc4[nH]ccc34)cn2)C1 [baricitinib] | decreased cell proliferation at higher doses | decreased cell proliferation at higher doses |  |  |
| O=C(NOC[C@H](O)CO)c1ccc(F)c(F)c1Nc1ccc(I)cc1F [mirdametinib] | dose-dependently reduced | dose-dependently reduced | dose-dependently reduced | 220 to 1220 nM |

Source: article PMC10102849 (Clinical cancer research : an official journal of the …, 2023)
